Results reported in PubChem BioAssay (NCI).
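Method: 48-hour compound exposure of cells in 96-well plates, five concentrations, linear interpolation of endpoints. Abbreviation: GI50, concentration required for 50% inhibition of growth. TGI denotes the concentration required for complete inhibition of growth.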

Legend:
Assay in all cases: inhibition of tumour cell growth, NCI panel, 48 h
COLO 205 colon = tested on: COLO 205 colon
KM12 colon = tested on: KM12 colon
K-562 leukemia = tested on: K-562 leukemia
SNB-75 CNS = tested on: SNB-75 CNS
EKVX NSCLC = tested on: EKVX NSCLC
NCI-H460 lung = tested on: NCI-H460 lung
A498 renal = tested on: A498 renal
CCRF-CEM leukemia = tested on: CCRF-CEM leukemia
TK-10 renal = tested on: TK-10 renal
LOX IMVI melanoma = tested on: LOX IMVI melanoma

SMILES | TGI (COLO 205 colon) | TGI (KM12 colon) | TGI (K-562 leukemia) | TGI (SNB-75 CNS) | TGI (EKVX NSCLC) | TGI (NCI-H460 lung) | TGI (A498 renal) | TGI (CCRF-CEM leukemia) | TGI (TK-10 renal) | TGI (LOX IMVI melanoma) | GI50 (COLO 205 colon) | GI50 (KM12 colon) | GI50 (K-562 leukemia) | GI50 (SNB-75 CNS) | GI50 (EKVX NSCLC) | GI50 (NCI-H460 lung) | GI50 (A498 renal) | GI50 (CCRF-CEM leukemia) | GI50 (TK-10 renal) | GI50 (LOX IMVI melanoma)
O=C(O)C1Cc2nc[nH]c2CN1 (stereo not given) | > 100 µM | > 100 µM | > 100 µM | > 100 µM | > 100 µM | > 100 µM | > 100 µM | > 100 µM | > 100 µM | > 100 µM | – | – | – | – | – | – | – | – | – | –
CC(=O)N1c2ccccc2C23CCN4CC5=CCOC(O)C(C5CC42)C13 (stereo not given) | > 100 µM | > 100 µM | > 100 µM | > 100 µM | > 100 µM | > 100 µM | > 100 µM | > 100 µM | > 100 µM | > 100 µM | – | – | – | – | – | – | – | – | – | –
CC(NC1CCC[C@H]1O)c1ccccc1 (mixture of isomers) | > 100 µM | > 100 µM | > 100 µM | > 100 µM | > 100 µM | > 100 µM | > 100 µM | > 100 µM | > 100 µM | > 100 µM | – | – | – | – | – | – | – | – | – | –
Cc1ccnc2c1NC(=O)c1cccnc1N2C1CC1 | > 100 µM | > 100 µM | > 100 µM | > 100 µM | > 100 µM | > 100 µM | > 100 µM | > 100 µM | > 100 µM | > 100 µM | > 100 µM | > 100 µM | > 100 µM | 54.4 µM | > 100 µM | > 100 µM | > 100 µM | > 100 µM | > 100 µM | > 100 µM
Cc1cc(N2CCN(C)CC2)nc(NC2CCCC(Nc3ccnc4cc(Cl)ccc34)C2)n1 (stereo not given) | 3.45 µM | 10.1 µM | 3.92 µM | 5 µM | 12.5 µM | 5.07 µM | 15.1 µM | 7.34 µM | 3.63 µM | 3.53 µM | 1.68 µM | 2.89 µM | 0.451 µM | 1.65 µM | 2.81 µM | 2.16 µM | 4.31 µM | 1.78 µM | 1.81 µM | 1.77 µM
COC(=O)c1c2c(c(C)[n+]([O-])c1C)C(=O)C(NCc1ccc(F)c(Cl)c1)=CC2=O | 2.29 µM | 9.63 µM | > 100 µM | 9.32 µM | 5.18 µM | 9.09 µM | 3.68 µM | 22.8 µM | 16 µM | 8.88 µM | 0.588 µM | 1.96 µM | 2.67 µM | 2.74 µM | 1.93 µM | 1.51 µM | 1.52 µM | 3.03 µM | 3.76 µM | 2.34 µM
Cc1ccc(NC2=C(Cl)C(=O)c3nc(C)ccc3C2=O)cc1 | 4.37 µM | 12.1 µM | > 100 µM | 3.72 µM | 2.92 µM | 4.57 µM | 3.81 µM | > 100 µM | 3.81 µM | 2.22 µM | 1.93 µM | 2.59 µM | 0.702 µM | 1.81 µM | 1.55 µM | 1.69 µM | 0.0538 µM | 2.65 µM | 2.27 µM | 0.711 µM
Cc1oc2c(c1C(=O)c1ccccc1)C(=O)c1ccccc1C2=O | 36.5 µM | 18.7 µM | 5.89 µM | 13.6 µM | 29.6 µM | 34.2 µM | 33.9 µM | 5.76 µM | 33.2 µM | 7.52 µM | – | – | – | – | – | – | – | – | – | –
